Data as given in ChEMBL document CHEMBL4610033, “(1-4)-Thiodisaccharides as anticancer agents. Part 5. Evaluation of anticancer activity and investigation of mechanism of action” (Bioorg Med Chem Lett, 2020).
Active and inactive are the calls of the source. The rule behind the calls is not given here.

Key:
U-87 MG [1] = assay: Antiproliferative activity against human U87 cells assessed as reduction in cell viability after 14 hrs by CCK8 assay; assay type: functional, cell-based, U-87MG ATCC
[2] = Antiproliferative activity against human H6PX cells assessed as reduction in cell viability after 14 hrs by CCK8 assay; assay type: functional, cell-based
[3] = Antiproliferative activity against human H7PX cells assessed as reduction in cell viability after 14 hrs by CCK8 assay; assay type: functional, cell-based
U-87 MG [4] = assay: Anticlonogenic activity against human U87 cells assessed as ratio of the number of colonies to the number of cells seeded at IC20 incubated for 14 days followed by replating and measured after 2 weeks by crystal violet staining based microscopic analysis (reference value: 100%); assay type: functional, U-87MG ATCC
[5] = Anticlonogenic activity against human H6PX cells assessed as ratio of the number of colonies to the number of cells seeded at IC20 incubated for 14 days followed by replating and measured after 2 weeks by crystal violet staining based microscopic analysis (reference value: 100%); assay type: functional
[6] = Anticlonogenic activity against human H7PX cells assessed as ratio of the number of colonies to the number of cells seeded at IC20 incubated for 14 days followed by replating and measured after 2 weeks by crystal violet staining based microscopic analysis (reference value: 100%); assay type: functional
U-87 MG [7] = assay: Induction of apoptosis in human U87 cells assessed as viable cells at IC20 after 4 hrs by AnnexinV-FITC/PI staining based flow cytometry analysis (reference value: 93.1%); assay type: functional, U-87MG ATCC
U-87 MG [8] = assay: Induction of apoptosis in human U87 cells assessed as apoptotic cells at IC20 after 4 hrs by AnnexinV-FITC/PI staining based flow cytometry analysis (reference value: 6.9%); assay type: functional, U-87MG ATCC
[9] = Induction of apoptosis in human H6PX cells assessed as viable cells at IC20 after 4 hrs by AnnexinV-FITC/PI staining based flow cytometry analysis (reference value: 90.3%); assay type: functional
[10] = Induction of apoptosis in human H6PX cells assessed as apoptotic cells at IC20 after 4 hrs by AnnexinV-FITC/PI staining based flow cytometry analysis (reference value: 9.7%); assay type: functional
[11] = Induction of apoptosis in human H7PX cells assessed as viable cells at IC20 after 4 hrs by AnnexinV-FITC/PI staining based flow cytometry analysis (reference value: 90.4%); assay type: functional
[12] = Induction of apoptosis in human H7PX cells assessed as apoptotic cells at IC20 after 4 hrs by AnnexinV-FITC/PI staining based flow cytometry analysis (reference value: 9.6%); assay type: functional
U-87 MG [13] = assay: Induction of apoptosis in human U87 cells assessed as reduction in bcl2 gene expression at IC20 after 4 hrs by RT-PCR analysis relative to untreated control; assay type: functional, U-87MG ATCC
U-87 MG [14] = assay: Induction of apoptosis in human U87 cells assessed as increase in FASLG gene expression at IC20 after 4 hrs by RT-PCR analysis relative to untreated control; assay type: functional, U-87MG ATCC
[15] = Induction of apoptosis in human H6PX cells assessed as reduction in bcl2 gene expression at IC20 after 4 hrs by RT-PCR analysis relative to untreated control; assay type: functional
[16] = Induction of apoptosis in human H6PX cells assessed as increase in FASLG gene expression at IC20 after 4 hrs by RT-PCR analysis relative to untreated control; assay type: functional
[17] = Induction of apoptosis in human H7PX cells assessed as reduction in bcl2 gene expression at IC20 after 4 hrs by RT-PCR analysis relative to untreated control; assay type: functional
[18] = Induction of apoptosis in human H7PX cells assessed as increase in FASLG gene expression at IC20 after 4 hrs by RT-PCR analysis relative to untreated control; assay type: functional
U-87MG ATCC [19] = assay: Inhibition of TrxR in human U87 cells at IC20 incubated for 1 hr and measured up to 4 hrs by DNTB-reagent based colorimetric assay; assay type: cell-based
Homo sapiens [20] = species on record: Homo sapiens; assay: Inhibition of TrxR in human H6PX cells at IC20 incubated for 1 hr and measured up to 4 hrs by DNTB-reagent based colorimetric assay; assay type: cell-based
Homo sapiens [21] = species on record: Homo sapiens; assay: Inhibition of TrxR in human H7PX cells at IC20 incubated for 1 hr and measured up to 4 hrs by DNTB-reagent based colorimetric assay; assay type: cell-based
U-87MG ATCC [22] = assay: Inhibition of TrxR in human U87 cells at IC20 incubated for 1 hr and measured after 4 hrs by TRFS-GREEN dye based fluorescence microscopic analysis; assay type: cell-based
Homo sapiens [23] = species on record: Homo sapiens; assay: Inhibition of TrxR in human H6PX cells at IC20 incubated for 1 hr and measured after 4 hrs by TRFS-GREEN dye based fluorescence microscopic analysis; assay type: cell-based
Homo sapiens [24] = species on record: Homo sapiens; assay: Inhibition of TrxR in human H7PX cells at IC20 incubated for 1 hr and measured after 4 hrs by TRFS-GREEN dye based fluorescence microscopic analysis; assay type: cell-based
U-87 MG [25] = assay: Induction of ROS generation in human U87 cells at IC20 incubated for 1 hr by CM-H2DCFDA staining based microplate reader analysis; assay type: functional, cell-based; details: U-87MG ATCC
U-87MG ATCC [26] = assay: Inhibition of TrxR in human U87 cells assessed as reduction in intracellular thiol levels at IC20 after 1 hr by DNTB reagent based assay relative to control; assay type: cell-based; design: scale not given: the % may be the effect or the level left
Homo sapiens [27] = species on record: Homo sapiens; assay: Inhibition of TrxR in human H6PX cells assessed as reduction in intracellular thiol levels at IC20 after 1 hr by DNTB reagent based assay relative to control; assay type: cell-based; design: scale not given: the % may be the effect or the level left
Homo sapiens [28] = species on record: Homo sapiens; assay: Inhibition of TrxR in human […] cells assessed as reduction in intracellular thiol levels at IC20 after 1 hr by DNTB reagent based assay relative to control; assay type: cell-based; design: scale not given: the % may be the effect or the level left
U-87 MG [29] = assay: Inhibition of protein synthesis in human U87 cells at IC20 for 14 hrs in presence of labeled methionine by fluorescence microscopic analysis; assay type: functional, cell-based; details: U-87MG ATCC
Homo sapiens [30] = species on record: Homo sapiens; assay: Inhibition of protein synthesis in human H6PX cells at IC20 for 14 hrs in presence of labeled methionine by fluorescence microscopic analysis; assay type: functional, cell-based
Homo sapiens [31] = species on record: Homo sapiens; assay: Inhibition of protein synthesis in human H7PX cells at IC20 for 14 hrs in presence of labeled methionine by fluorescence microscopic analysis; assay type: functional, cell-based
U-87 MG [32] = assay: Induction of endoplasmic reticulum stress in human U87 cells assessed as GRP78 expression at IC20 after 1 hr by ELISA relative to control; assay type: functional, U-87MG ATCC
U-87 MG [33] = assay: Induction of endoplasmic reticulum stress in human U87 cells assessed as PDIA4 expression at IC20 after 1 hr by ELISA relative to control; assay type: functional, U-87MG ATCC
U-87 MG [34] = assay: Induction of endoplasmic reticulum stress in human U87 cells assessed as EDEM expression at IC20 after 1 hr by ELISA relative to control; assay type: functional, U-87MG ATCC
U-87 MG [35] = assay: Induction of endoplasmic reticulum stress in human U87 cells assessed as DDIT3 expression at IC20 after 1 hr by ELISA relative to control; assay type: functional, U-87MG ATCC
U-87 MG [36] = assay: Induction of endoplasmic reticulum stress in human U87 cells assessed as DNAJC3 expression at IC20 after 1 hr by ELISA relative to control; assay type: functional, U-87MG ATCC
U-87 MG [37] = assay: Induction of endoplasmic reticulum stress in human U87 cells assessed as GRP78 expression at IC20 after 2 hrs by ELISA relative to control; assay type: functional, U-87MG ATCC
U-87 MG [38] = assay: Induction of endoplasmic reticulum stress in human U87 cells assessed as PDIA4 expression at IC20 after 2 hrs by ELISA relative to control; assay type: functional, U-87MG ATCC
U-87 MG [39] = assay: Induction of endoplasmic reticulum stress in human U87 cells assessed as EDEM expression at IC20 after 2 hrs by ELISA relative to control; assay type: functional, U-87MG ATCC
U-87 MG [40] = assay: Induction of endoplasmic reticulum stress in human U87 cells assessed as DDIT3 expression at IC20 after 2 hrs by ELISA relative to control; assay type: functional, U-87MG ATCC
U-87 MG [41] = assay: Induction of endoplasmic reticulum stress in human U87 cells assessed as DNAJC3 expression at IC20 after 2 hrs by ELISA relative to control; assay type: functional, U-87MG ATCC
[42] = Drug uptake in human U87 cells after 2 hrs by microbeta liquid scintillation counting analysis; assay type: ADME, cell-based; details: u-87mg atcc
[43] = Drug accumulation in human U87 cells after 2 hrs by microbeta liquid scintillation counting analysis; assay type: ADME, cell-based; details: u-87mg atcc

CC(=O)OC[C@H]1O[C@@H](S[C@@H]2CC(=O)[C@@H]3OC[C@H]2O3)[C@H](OC(C)=O)[C@@H](OC(C)=O)[C@@H]1OC(C)=O
IC20 (U-87 MG [1]): 51.4 µM
IC50 (U-87 MG [1]): 65.2 µM
IC20 [2]: 113 µM
IC50 [2]: 133 µM
IC20 [3]: 134 µM
IC50 [3]: 158 µM
Activity (U-87 MG [4]): 40%
Activity [5]: 46%
Activity [6]: 63%
Activity (U-87 MG [7]): 37.8%
Activity (U-87 MG [8]): 62.2%
Activity [9]: 19.6%
Activity [10]: 80.4%
Activity [11]: 56.7%
Activity [12]: 43.3%
fold change (FC) (U-87 MG [13]): -0.35
fold change (FC) (U-87 MG [14]): 3.25
fold change (FC) [15]: -0.4
fold change (FC) [16]: 4.46
fold change (FC) [17]: -0.69
fold change (FC) [18]: 6.12
inhibition (U-87MG ATCC [19]): Active
inhibition (Homo sapiens [20]): Active
inhibition (Homo sapiens [21]): Active
inhibition (U-87MG ATCC [22]): Active
inhibition (Homo sapiens [23]): Active
inhibition (Homo sapiens [24]): Active
Activity (U-87 MG [25]): Active
Activity (U-87MG ATCC [26]): 11.8%
Activity (Homo sapiens [27]): 22.3%
Activity (Homo sapiens [28]): 19.7%
inhibition (U-87 MG [29]): Active
inhibition (Homo sapiens [30]): Active
inhibition (Homo sapiens [31]): Active
fold change (FC) (U-87 MG [32]): 1.81
fold change (FC) (U-87 MG [33]): 1.9
fold change (FC) (U-87 MG [34]): 2.39
fold change (FC) (U-87 MG [35]): 7.01
fold change (FC) (U-87 MG [36]): 1.07
fold change (FC) (U-87 MG [37]): 1.38
fold change (FC) (U-87 MG [38]): 1.24
fold change (FC) (U-87 MG [39]): 1.1
fold change (FC) (U-87 MG [40]): 0.11
fold change (FC) (U-87 MG [41]): 2.43
Drug uptake [42]: Active
Drug uptake [43]: Not Active

O=C(O)c1ccccc1S[C@@H]1CC(=O)[C@@H]2OC[C@H]1O2
IC20 (U-87 MG [1]): 784 µM
IC50 (U-87 MG [1]): 922 µM
IC20 [2]: 922 µM
IC50 [2]: 955 µM
IC20 [3]: 654 µM
IC50 [3]: 736 µM
Activity (U-87 MG [4]): 86%
Activity [5]: 75%
Activity [6]: 98%
